Structures can show the parent of a compound that is named as a salt.

Consider 41 compounds from EP0233461B2, “4,5,6-Substituted-2-pyrimidinamines” (AMERICAN CYANAMID COMPANY, priority 1986, dated 1987).

One experiment relates to human basophils. The experiment in a line: Inhibition of histamine release from immunologically stimulated human basophils. The format is cell-based. To be noted: Homo sapiens, concentration causing 50% inhibition of histamine release, by linear regression; active if IC50 ≦ 48 µM; read-out: IC50. On the procedure: The blood is allowed to sediment at room temperature in two 50 ml polycarbonate centrifuge tubes until a sharp interface develops between the red cells and plasma (60-90 minutes). The plasma (top) layer from each tube is withdrawn by pipet and transferred to respective 50 ml polycarbonate tubes. The plasma is centrifuged for 8 minutes at 110X G at 4°C. The supernatant is carefully poured off as completely as possible and the cell button is resuspended in 2-3 ml of Tris-A buffer using a siliconized Pasteur pipet. The resuspension is accomplished by drawing the liquid gently in an out of the pipet, with the tip below the liquid until an even suspension of cells is obtained. Sufficient Tris-A buffer is then added to bring the volume in the tube to about 45 ml and the tube is centrifuged at 110X G for 8 minutes at 4°C. The supernatant is poured off and the cell button is resuspended and centrifuged as described above. The supernatant is poured off and the cell button is suspended in 2-3 ml of Tris-ACM buffer to make the final volume sufficient to allow addition to the reaction tubes. Reaction tubes containing anti-IgE or antigens, either alone or with test compound in a total volume of 0.2 ml are prepared and placed in a 37°C bath. The cells are warmed to 37°C and frequently swirled to ensure an even suspension, while 1.0 ml aliquots are added to each reaction tube. The tubes are then incubated for 60 minutes at 37°C, vortexing the tubes gently every 15 minutes to keep the cells evenly suspended. When the reaction is complete, the tubes are centrifuged at 4°C for 10 minutes at 1500 rpm to sediment the cells. […] Blanks and totals are included in each test. The blanks have cells and all reagents except antigen or anti-IgE. The totals contain 0.24 ml of 8% perchloric acid, one ml of cells and 0.2 ml of buffer. All samples are then centrifuged to remove the precipitate protein. […] The automated system consists of the following Technicon Autoanalyzer II components Sampler IV, Dual-Speed Proportioning Pump III, Fluoronephelometer with a narrow pass primary filter 7-60 and a secondary filter 3-74, Recorder, and Digital Printer. The manifold used is the one described by Siraganian vide supra, with the following modifications: the dialyzer is omitted; all pumping tubes pass through a single proportioning pump with large capacity and twice the volume of sample is taken for anaylsis. The automated chemistry consists of the following steps: Extraction from alkaline saline into butanol, back extraction into dilute hydrochloric acid by addition of heptane, reaction of histamine with o-phthaldialdehyde (OPT) at high pH and conversion of the OPT adduct to a stable fluorophore with phosphoric acid. The reaction product is then passed through the fluorometer. The full scale response is adjusted to 50 ng histamine base with a threshold sensitivity of approximately 0.5 ng. The instrument blank (wash) is substracted from the ng histamine of each sample. Then the ng histamine of each sample is divided by the mean of the three totals (cells lysed with perchloric acid) to obtain percent release. Control samples contain antigen but no test compound. Blank (or spontaneous release) samples contain neither antigen nor test compound. The mean of the blanks (three replicates) is subtracted from the percent release for controls and test compounds.
For orientation: IC50 means the point on the concentration scale where inhibition reaches its midpoint. As for `Cc1cc(C)cc(Nc2nccc(-c3cc(C)oc3C)n2)c1` [4-(2,5-Dimethyl-3-furanyl)-N-(3,5-dimethylphenyl)-2-pyrimidinamine], the IC50 amounted to 4.1 µM.
Turning to `CCc1cccc(Nc2nccc(-c3cccs3)n2)c1` [N-(3-Ethylphenyl)-4-(2-thienyl)-2-pyrimidinamine], the IC50 was found to be 48 µM.
In the case of `CCc1ccc(Nc2nccc(-c3cc(C)oc3C)n2)cc1` [4-(2,5-Dimethyl-3-furanyl)-N-(4-ethylphenyl)-2-pyrimidinamine], the IC50 came out at 19.2 µM.
On to `CCOC(=O)c1cccc(Nc2nccc(-c3cccnc3)n2)c1` [3-[[4-(3-Pyridinyl)-2-pyrimidinyl]amino]benzoic acid, ethyl ester], for which the half-maximal inhibitory concentration (IC50) amounted to 20.3 µM.
Turning to `Cc1cc(-c2ccnc(Nc3cccc(N(C)C)c3)n2)c(C)o1` [N'-[4-(2,5-Dimethyl-3-furanyl)-2-pyrimidinyl]-N,N-dimethyl-1,3-benzenediamine], the IC50 was less than 24 µM.
Same read-out and setting: the same measure for `Nc1cccc(Nc2nccc(-c3ccccn3)n2)c1` [N-[4-(2-Pyridinyl)-2-pyrimidinyl]-1,3-benzenediamine]: 0.2 µM; for `CN(C)CCOc1ccc(Nc2nccc(-c3ccncc3)n2)cc1` [N-[4-[2-(Dimethylamino)ethoxy]phenyl]-4-(4-pyridinyl)-2-pyrimidinamine]: 1.5 µM.
For the compound `CCOC(=O)COc1ccc(Nc2nccc(-c3ccncc3)n2)cc1` [[4-[[4-Pyridinyl)-2-pyrimidinyl]amino]phenoxy]acetic acid, ethyl ester], the IC50 is 5.8 µM.
Consider `NS(=O)(=O)c1cccc(Nc2nccc(-c3ccncc3)n2)c1` [3-[[4-(4-Pyridinyl)-2-pyrimidinyl]-amino]benzenesulfonamide], for which the IC50 came to 0.5 µM.
With `Cc1cccc(Nc2nccc(-c3cccnc3)n2)c1` [N-(3-Methylphenyl)-4-(3-pyridinyl)-2-pyrimidinamine], the IC50 was determined as 1.5 µM.
Same read-out and setting: next, `c1cc(Nc2nccc(-c3cccs3)n2)cc(-n2ccnc2)c1` [N-[3-(1H-Imidazol-1-yl)phenyl]-4-(2-thienyl)-2-pyrimidinamine]: 0.2 µM; `FC(F)(F)c1cccc(Nc2nccc(-c3ccncc3)n2)c1` [4-(4-Pyridinyl)-N-[3-(trifluoro-methyl)phenyl]-2-pyrimidinamine]: 32 µM; `CN1CCN(c2ccc(Nc3nccc(-c4cccs4)n3)cc2)CC1` [N-[4-(4-Methyl-1-piperazinyl)phenyl]-4-(2-thienyl)-2-pyrimidinamine]: less than 24 µM.
Turning to `C=CCOc1ccc(Nc2nccc(-c3cccnc3)n2)cc1` [N-[4-(2-Propenyloxy)phenyl]-4-(3-pyridinyl)-2-pyrimidinamine], the IC50 came out at 0.8 µM.
Still for that read-out and setting: the same measure for `Fc1cccc(Nc2nccc(-c3ccccn3)n2)c1` [N-(3-Fluorophenyl)-4-(2-pyridinyl)-2-pyrimidinamine]: 0.9 µM; for `COc1ccc(Nc2nccc(-c3cc[n+](C)cc3)n2)cc1` [4-[2-[(4-Methoxyphenyl)amino]-4-pyrimidinyl]-1-methylpyridinium, iodide]: 33.3 µM; for `CC(=O)Nc1ccc(Nc2nccc(-c3cccnc3)n2)cc1` [N-[4-[[4-(3-Pyridinyl)-2-pyrimidin-yl]amino]phenyl]acetamide]: 3.6 µM.
In the case of `CN(C)c1ccccc1Nc1nccc(-c2ccncc2)n1` [N,N-Dimethyl-N'-[4-(4-pyridinyl)-2-pyrimidinyl]-1,2-benzenediamine, fumarate], the IC50 was found to be 36.2 µM.
On the same count and under the same terms, the same measure for `Cc1ccsc1-c1ccnc(Nc2ccc(N(C)C)cc2)n1` [N,N-Dimethyl-N'-[4-(3-methyl-2-thienyl)-2-pyrimidinyl]-1,4-benzenediamine]: 1.8 µM; for `CN1CCN(c2ccc(Nc3nccc(-c4ccncc4)n3)cc2)CC1` [N-[4-(4-Methyl-1-piperazinyl)phenyl]-4-(4-pyridinyl)-2-pyrimidinamine]: 0.6 µM; for `CC(=O)Nc1cccc(Nc2nccc(-c3cccnc3)n2)c1` [N-[3-[[4-(3-Pyridinyl)-2-pyrimidinyl]amino]-phenyl]acetamide]: 5 µM.
Regarding `CC(=NO)c1ccc(Nc2nccc(-c3cccnc3)n2)cc1` [1-[4-[[4-(3-Pyridinyl)-2-pyrimidinyl]amino]phenyl]ethanone, oxime], the IC50 came out at 11.4 µM.
For `CCN(CC)CCOc1ccc(Nc2nccc(-c3cccnc3)n2)cc1` [N-[4-[2-Diethylamino)ethaxy]phenyl]-4-(3-pyridinyl)-2-pyrimidinamine], the IC50 amounted to 0.2 µM.
Same read-out and setting: next, `Cc1cccc(Nc2nccc(-c3cc(C)oc3C)n2)c1` [4-(2,5-Dimethyl-3-furanyl)-N-(3-methylphenyl)-2-pyrimidinamine]: 28.5 µM.
Still for that read-out and setting: next, `CN(C)CCOc1ccc(N(CCN(C)C)c2nccc(-c3ccncc3)n2)cc1` [N-[4-[2-(Dimethylamino)ethoxy]phenyl]-N',N'-dimethyl-N-[4-(4-pyridinyl)-2-pyrimidinyl]-1,2-ethanediamine]: 9.1 µM.
Still for that read-out and setting: the same measure for `CN1CCN(c2ccc(Nc3nccc(-c4ccco4)n3)cc2)CC1` [4-(2-Furanyl)-N-[4-(4-methyl-1-piperazinyl)phenyl]-2-pyrimidin-amine]: 1.8 µM.
As for `CCN(CC)CCOc1ccc(Nc2nccc(-c3ccncc3)n2)cc1` [N-[4-[2-(Diethylamino)ethoxy]phenyl]-4-(4-pyridinyl)-2-pyrimidinamine], the IC50 worked out at 0.2 µM.
Still for that read-out and setting: next, `CCc1ccc(Nc2nccc(-c3ccc(C)nc3)n2)cc1` [N-(4-Ethylphenyl)-4-(6-methyl-3-pyridinyl)-2-pyrimidinamine]: 13.4 µM.
Same read-out and setting: the same measure for `CCc1cccc(Nc2nccc(-c3ccco3)n2)c1` [N-(3-Ethylphenyl)-4-(2-furanyl)-2-pyrimidinamine]: 9.7 µM; for `CCc1ccc(Nc2nccc(-c3cccnc3)n2)cc1` [N-(4-Ethylphenyl)-4-(3-pyridinyl)-2-pyrimidinamine]: less than 48 µM; for `COc1ccc(Nc2nccc(-c3ccccn3)n2)cc1` [N-(4-Methoxyphenyl)-4-(2-pyridinyl)-2-pyrimidinamine]: 8.3 µM.
Turning to `Cc1cccc(Nc2nccc(-c3ccncc3)n2)c1C` [N-(2,3-Dimethylphenyl)-4-(4-pyridinyl)-2-pyrimidinamine], the IC50 worked out at 20.2 µM.
For the compound `Nc1cccc(Nc2nccc(-c3ccncc3)n2)c1` [N-[4-(4-Pyridinyl)-2-pyrimidinyl]-1,3-benzenediamine], the concentration for half-maximal inhibition (IC50) was determined as 1 µM.
Same read-out and setting: next, `CC(=O)Nc1cccc(Nc2nccc(-c3ccccn3)n2)c1` [N-[3-[[4-(2-Pyridinyl)-2-pyrimidinyl]amino]-phenyl]acetamide]: 0.3 µM.
Same read-out and setting: next, `CN(C)c1cccc(Nc2nccc(-c3cccnc3)n2)c1` [N,N-Dimethyl-N'-[4-(3-pyridinyl)-2-pyrimidinyl]-1,3-benzenediamine]: 1.7 µM.

The experiment is the same for the next values; noted with them: concentration causing 50% inhibition of histamine release, by linear regression; active if IC50 ≦ 48 µM; dihydrochloride; read-out: IC50.
`CN(C)c1cccc(Nc2nccc(-c3ccncc3)n2)c1` [N,N-Dimethyl-N'-[4-(4-pyridinyl)-2-pyrimidin-yl]-1,3-benzenediamine, dihydrochloride]: the IC50 came out at 0.5 µM.

Still in this experiment, the particulars now being: concentration causing 50% inhibition of histamine release, by linear regression; active if IC50 ≦ 48 µM; read-out: IC50.
Consider `Cc1cc(C)cc(Nc2nccc(-c3ccccn3)n2)c1` [N-(3,5-Dimethylphenyl)-4-(2-pyridinyl)-2-pyrimidinamine], for which the IC50 worked out at 1 µM.
On to `Cc1cc(C)cc(Nc2nccc(-c3cccnc3)n2)c1` [N-(3,5-Dimethylphenyl)-4-(3-pyridinyl)-2-pyrimidinamine], for which the concentration for half-maximal inhibition (IC50) came out at 0.8 µM.
Regarding `CN(C)c1cccc(Nc2nccc(-c3ccncc3)n2)c1` [N,N-Dimethyl-N'-[4-(4-pyridinyl)-2-pyrimidinyl]-1,3-benzened] [N,N-Dimethyl-N'-[4-(4-pyridinyl)-2-pyrimidinyl]-1,3-benzenediamine], the IC50 came to 3.5 µM.
For the compound `Cc1cccc(Nc2nccc(-c3ccco3)n2)c1` [4-(2-Furanyl)-N-[3-(methylphenyl)]-2-pyrimidinamine, sulfate], the IC50 stood at 3 µM.

Staying with this experiment, now noted: concentration causing 50% inhibition of histamine release, by linear regression; active if IC50 ≦ 48 µM; sulfate.
`Cc1cnc(Nc2ccccc2)nc1-c1ccco1` [4-(2-Furanyl)-5-methyl-N-phenyl-2-pyrimidinamine, sulfate] yielded a half-maximal inhibitory concentration (IC50) of 5 µM.
